Assay results published in patent US20170027967A1, “PHARMACEUTICAL FORMULATIONS” (priority 2015, published 2017).
Where two headings read alike, the source gives them in different places.

Conditions: 40° C./75% RH open, 60° C. closed
Procedure: Studies were conducted to assess the stability of tenofovir alafenamide hemifumarate in the presence of (a) emtricitabine, and (b) emtricitabine and rilpivirine HCl.

Structure (SMILES): CC(C)OC(=O)[C@H](C)N[P@](=O)(CO[C@H](C)Cn1cnc2c(N)ncnc21)Oc1ccccc1 [tenofovir alafenamide hemifumarate]
- rate of degradation of tenofovir alafenamide hemifumarate (in the presence of both emtricitabine and rilpivirine HCl): further increased
- rate of degradation of tenofovir alafenamide hemifumarate (in the presence of emtricitabine): increased
